Data on 23 molecules can be found in patent US11440913B2, “Aminoimidazopyridazines as kinase inhibitors” (BRISTOL-MYERS SQUIBB COMPANY, priority 2017, dated 2022).

In experiment [1] the test system is MLKL phosphorylation in HT29-L23 human colorectal adenocarcinoma cells. Description: MLKL Phosphorylation High-Content Assay. Format: cell-based. The conditions noted are these: 6 h, necroptosis induced with TNFα, SMAC mimetic and Z-VAD, read-out: pMLKL (IC50). The method, boiled down:
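HT29-L23 cells pretreated 30 min at 37 °C with compound (6.25 to 0.106 μM final), then necroptosis induced with TNFα 35 ng/mL, SMAC mimetic 700 nM and Z-VAD 140 nM for 6 h. Fixed cells immunostained for MLKL pS358 and imaged; IC50 and Ymax from 4-parameter logistic fit.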

For experiment [2], the target named is His-GST-TVMV-hRIPK1(1-324) (Homo sapiens (Human), UniProt Q13546). Description: RIPK1 HTRF Binding Assay. As to conditions: HTRF binding, 1 h at rt; read-out: RIPK1 (IC50). The method, boiled down: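 HTRF probe-displacement binding: 1 nM His-GST-TVMV-hRIPK1(1-324) (baculovirus construct), 90.6 nM probe, 0.2 nM anti-GST-Tb in 20 mM HEPES, 10 mM MgCl2, 0.015% Brij-35, 4 mM DTT, 0.05 mg/mL BSA. Incubated 1 h at rt; FRET 520/495 nm ratio, inhibition relative to DMSO-only wells.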
Sequence of His-GST-TVMV-hRIPK1(1-324) (Q13546 1-324): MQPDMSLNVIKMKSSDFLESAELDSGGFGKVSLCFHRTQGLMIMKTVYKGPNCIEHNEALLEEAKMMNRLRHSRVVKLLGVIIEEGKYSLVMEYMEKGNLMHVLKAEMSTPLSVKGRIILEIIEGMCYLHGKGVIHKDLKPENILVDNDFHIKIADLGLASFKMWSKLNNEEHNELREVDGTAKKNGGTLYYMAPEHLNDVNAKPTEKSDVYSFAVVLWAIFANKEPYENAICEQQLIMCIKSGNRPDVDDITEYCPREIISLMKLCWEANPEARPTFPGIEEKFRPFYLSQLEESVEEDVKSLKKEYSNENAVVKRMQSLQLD
Background: TR-FRET usually uses a lanthanide donor and a delayed reading to cut background.

Structures can show the parent of a compound that is named as a salt. Where two headings read alike, the source gives them in different places.

In the case of `COc1ncc(-c2ccc3nc(NC(=O)CC#N)cn3n2)cc1C(=O)NCc1cc(OC(F)(F)F)ccc1F` [Example 33, 5-[2-(2-cyanoacetamido)imidazo[1,2-b]pyridazin-6-yl]-N-{[2-fluoro-5-(trifluoromethoxy)phenyl]methyl}-2-methoxypyridine-3-carboxamide], the IC50 (in general, the point on the concentration scale where inhibition reaches its midpoint) in experiment [1] (Homo sapiens) was determined as 0.183 µM; in experiment [2], 0.186 µM.

As for `COc1ncc(-c2ccc3nc(NC(=O)CO)cn3n2)cc1C(=O)NCc1cc(C(F)(F)F)ccc1F` [Example 34, N-{[2-fluoro-5-(trifluoromethyl)phenyl]methyl}-5-[2-(2-hydroxyacetamido)imidazo[1,2-b]pyridazin-6-yl]-2-methoxypyridine-3-carboxamide], the half-maximal inhibitory concentration (IC50) in experiment [1] (Homo sapiens) is 0.215 µM; in experiment [2] it was 0.096 µM.

As for `COc1ncc(-c2ccc3nc(NC(=O)CO)cn3n2)cc1C(=O)NCc1cc(OC(F)(F)F)ccc1F` [Example 35, N-{[2-fluoro-5-(trifluoromethoxy)phenyl]methyl}-5-[2-(2-hydroxyacetamido)imidazo[1,2-b]pyridazin-6-yl]-2-methoxypyridine-3-carboxamide], the results for the IC50 in experiment [1] (Homo sapiens) and in experiment [2] were 0.13 µM and 0.025 µM, respectively.

As for `COc1ncc(-c2ccc3nc(NC(=O)C(C)(C)O)cn3n2)cc1C(=O)NCc1cc(OC(F)(F)F)ccc1F` [Example 36, N-{[2-fluoro-5-(trifluoromethoxy)phenyl]methyl}-5-[2-(2-hydroxy-2-methylpropanamido)imidazo[1,2-b]pyridazin-6-yl]-2-methoxypyridine-3-carboxamide], the IC50 is 0.092 µM in experiment [1] (Homo sapiens) and 0.048 µM in experiment [2].

Consider `COc1ccc(F)c(CNC(=O)c2cc(-c3ccc4nc(NC(C)=O)cn4n3)c(C)nc2C)c1` [Example 37, 5-(2-acetamidoimidazo[1,2-b]pyridazin-6-yl)-N-(2-fluoro-5-methoxybenzyl)-2,6-dimethylnicotinamide], for which the half-inhibitory concentration (IC50) was 0.208 µM in experiment [1] (Homo sapiens) and 0.067 µM in experiment [2].

As for `Cc1nc(C)c(-c2ccc3nc(NC(=O)CO)cn3n2)cc1C(=O)NCc1cc(OC(F)(F)F)ccc1F` [Example 38, N-(2-fluoro-5-(trifluoromethoxy)benzyl)-5-(2-(2-hydroxyacetamido)imidazo[1,2-b]pyridazin-6-yl)-2,6-dimethylnicotinamide], the IC50 was 0.034 µM in experiment [1] (Homo sapiens) and 0.013 µM in experiment [2].

`Cc1ncc(-c2ccc3nc(NC(=O)CO)cn3n2)cc1C(=O)NCc1cc(OC(F)(F)F)ccc1F` [Example 39, N-{[2-fluoro-5-(trifluoromethoxy)phenyl]methyl}-5-[2-(2-hydroxyacetamido)imidazo[1,2-b]pyridazin-6-yl]-2-methylpyridine-3-carboxamide]: the IC50 in experiment [1] (Homo sapiens) was 0.119 µM; in experiment [2] it was 0.055 µM.

Take `[2H]C([2H])([2H])Oc1ncc(-c2ccc3nc(NC(C)=O)cn3n2)cc1C(=O)NCc1cc(OC)ccc1F` [Example 40, 5-{2-acetamidoimidazo[1,2-b]pyridazin-6-yl}-N-[(2-fluoro-5-methoxyphenyl)methyl]-2-(D3)methoxypyridine-3-carboxamide]: the results for the IC50 in experiment [1] (Homo sapiens) and in experiment [2] were 0.265 µM and 0.125 µM, respectively.

Turning to `[2H]C([2H])([2H])Oc1ncc(-c2ccc3nc(NC(C)=O)cn3n2)cc1C(=O)N[C@@H](C)c1cc(OC(F)(F)F)ccc1F` [Example 41, 5-{2-acetamidoimidazo[1,2-b]pyridazin-6-yl}-N-[(1S)-1-[2-fluoro-5-(trifluoromethoxy)phenyl]ethyl]-2-(D3)methoxypyridine-3-carboxamide], the 50% inhibitory concentration (IC50) was 0.078 µM in experiment [1] (Homo sapiens) and 0.063 µM in experiment [2].

As to `[2H]C([2H])([2H])Oc1ncc(-c2ccc3nc(NC(C)=O)cn3n2)cc1C(=O)NCc1c(F)cccc1OCC(F)(F)F` [Example 42, 5-{2-acetamidoimidazo[1,2-b]pyridazin-6-yl}-N-{[2-fluoro-6-(2,2,2-trifluoroethoxy)phenyl]methyl}-2-(D3)methoxypyridine-3-carboxamide], the IC50 in experiment [1] (Homo sapiens) is 0.013 µM; in experiment [2], 0.011 µM.

With `[2H]C([2H])([2H])Oc1ncc(-c2ccc3nc(NC(C)=O)cn3n2)cc1C(=O)NCc1cc(F)cc(F)c1OC1CCCOC1` (stereo not shown) [Example 43, N-{[3,5-difluoro-2-(oxan-3-yloxy)phenyl]methyl}-5-{2-acetamidoimidazo[1,2-b]pyridazin-6-yl}-2-(D3)methoxypyridine-3-carboxamide], the IC50 was found to be 0.028 µM in experiment [1] (Homo sapiens) and 0.01 µM in experiment [2].

Take `[2H]C([2H])([2H])Oc1ncc(-c2ccc3nc(NC(C)=O)cn3n2)cc1C(=O)NCc1cc(F)cc(F)c1O[C@@H]1CCOC1` [Example 44, N-({3,5-difluoro-2-[(3R)-oxolan-3-yloxy]phenyl}methyl)-5-{2-acetamidoimidazo[1,2-b]pyridazin-6-yl}-2-(D3)methoxypyridine-3-carboxamide]: the IC50 in experiment [1] (Homo sapiens) turned out to be 0.071 µM; in experiment [2], 0.017 µM.

Turning to `[2H]C([2H])([2H])Oc1ncc(-c2ccc3nc(NC(C)=O)cn3n2)cc1C(=O)NC([2H])([2H])c1cc(F)cc(F)c1OC1CCOCC1` [Example 46, N-{[3,5-difluoro-2-(oxan-4-yloxy)phenyl](deutero)methyl}-5-{2-acetamidoimidazo[1,2-b]pyridazin-6-yl}-2-(D3)methoxypyridine-3-carboxamide], the IC50 in experiment [1] (Homo sapiens) came out at 0.001 µM; in experiment [2] it was 0.002 µM.

`[2H]C([2H])([2H])Oc1ncc(-c2ccc3nc(NC(C)=O)cn3n2)cc1C(=O)N[C@H](C)c1cc(OC(F)(F)F)ccc1F` [Example 47, 5-{2-acetamidoimidazo[1,2-b]pyridazin-6-yl}-N-[(1R)-1-[2-fluoro-5-(trifluoromethoxy)phenyl]ethyl]-2-(D3)methoxypyridine-3-carboxamide]: the results for the IC50 in experiment [1] (Homo sapiens) and in experiment [2] were 0.085 µM and 0.161 µM, respectively.

Turning to `[2H]C([2H])([2H])Oc1ncc(-c2ccc3nc(NC(C)=O)cn3n2)cc1C(=O)NCc1cc(F)cc(F)c1OC1COC1` [Example 48, N-{[3,5-difluoro-2-(oxetan-3-yloxy)phenyl]methyl}-5-{2-acetamidoimidazo[1,2-b]pyridazin-6-yl}-2-(D3)methoxypyridine-3-carboxamide], the IC50 in experiment [1] (Homo sapiens) stood at 0.087 µM; in experiment [2], 0.01 µM.

In the case of `[2H]C([2H])([2H])Oc1ncc(-c2ccc3nc(NC(C)=O)cn3n2)cc1C(=O)NCc1cc(F)cc(F)c1OC([2H])([2H])C1CC1` [Example 49, N-({2-[cyclopropyl(deutero)methoxy]-3,5-difluorophenyl}methyl)-5-{2-acetamidoimidazo[1,2-b]pyridazin-6-yl}-2-(D3)methoxypyridine-3-carboxamide], the 50% inhibitory concentration (IC50) in experiment [1] (Homo sapiens) was 0.005 µM; in experiment [2] it was 0.003 µM.

For the molecule `[2H]C([2H])([2H])Oc1ncc(-c2ccc3nc(NC(C)=O)cn3n2)cc1C(=O)NCc1cc(F)cc(F)c1OC1CCOCC1` [Example 50, N-{[3,5-difluoro-2-(oxan-4-yloxy)phenyl]methyl}-5-{2-acetamidoimidazo[1,2-b]pyridazin-6-yl}-2-(D3)methoxypyridine-3-carboxamide], the IC50 in experiment [1] (Homo sapiens) and in experiment [2] was 0.002 µM throughout.

Turning to `[2H]C([2H])([2H])Oc1ncc(-c2ccc3nc(NC(C)=O)cn3n2)cc1C(=O)NC(C)c1cc(C(F)(F)F)ccc1F` (stereo not shown) [Example 51, 5-{2-acetamidoimidazo[1,2-b]pyridazin-6-yl}-N-{1-[2-fluoro-5-(trifluoromethyl)phenyl]ethyl}-2-(D3)methoxypyridine-3-carboxamide], the figures for the IC50 in experiment [1] (Homo sapiens) and in experiment [2] were 0.2 µM and 0.063 µM, respectively.

Regarding `[2H]C([2H])([2H])Oc1ncc(-c2ccc3nc(NC(C)=O)cn3n2)cc1C(=O)NC(C)c1cc(C(F)(F)F)ccc1F` (stereo not shown) [Example 52, 5-{2-acetamidoimidazo[1,2-b]pyridazin-6-yl}-N-{1-[2-fluoro-5-(trifluoromethyl)phenyl]ethyl}-2-(D3)methoxypyridine-3-carboxamide], the results for the IC50 in experiment [1] and in experiment [2] were 0.185 µM and 0.065 µM, respectively.

For `[2H]C([2H])([2H])Oc1ncc(-c2ccc3nc(NC(C)=O)cn3n2)cc1C(=O)NCc1ccc(F)c(F)c1OCC1CC1` [Example 53, N-{[2-(cyclopropylmethoxy)-3,4-difluorophenyl]methyl}-5-{2-acetamidoimidazo[1,2-b]pyridazin-6-yl}-2-(D3)methoxypyridine-3-carboxamide], the figures for the IC50 in experiment [1] (Homo sapiens) and in experiment [2] were 0.081 µM and 0.062 µM, respectively.

Turning to `[2H]C([2H])([2H])Oc1ncc(-c2ccc3nc(NC(C)=O)cn3n2)cc1C(=O)NC(C)c1ccccc1OC(F)(F)F` (stereo not shown) [Example 54, 5-{2-acetamidoimidazo[1,2-b]pyridazin-6-yl}-2-(D3)methoxy-N-{1-[2-(trifluoromethoxy)phenyl]eth-yl}pyridine-3-carboxamide], the IC50 in experiment [1] (Homo sapiens) stood at 0.024 µM; in experiment [2], 0.005 µM.

Consider `[2H]C([2H])([2H])Oc1ncc(-c2ccc3nc(NC(C)=O)cn3n2)cc1C(=O)NCc1cc(F)cc(F)c1OCC1CC1` [Example 55, N-{[2-(cyclopropylmethoxy)-3,5-difluorophenyl]methyl}-5-{2-acetamidoimidazo[1,2-b]pyridazin-6-yl}-2-(D3)methoxypyridine-3-carboxamide, TFA], for which the IC50 in experiment [1] (Homo sapiens) came to 0.003 µM; in experiment [2], 0.001 µM.

`[2H]C([2H])([2H])Oc1ncc(-c2ccc3nc(NC(C)=O)cn3n2)cc1C(=O)NCc1cc(OCC2CC2)ccc1F` [Example 56, N-{[5-(cyclopropylmethoxy)-2-fluorophenyl]methyl}-5-{2-acetamidoimidazo[1,2-b]pyri-dazin-6-yl}-2-(D3)methoxypyridine-3-carboxamide, TFA]: the IC50 is 0.067 µM in experiment [1] (Homo sapiens) and 0.013 µM in experiment [2].
